Measurements taken from PubChem BioAssay (NCI).
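Grown in 96-well plates, cells were treated for 48 hours with each compound at five concentrations. Insufficient inhibition: endpoint recorded as highest concentration tested. GI50 = concentration required for 50% inhibition of growth. TGI: total growth inhibition.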

Legend:
Experiment in all cases: DTP human tumour cell line panel, 48 h; in the data active = GI50 below about 0.43 µM; inactive = the rest
PC-3 prostate = tested on: PC-3 prostate
HOP-62 NSCLC = tested on: HOP-62 NSCLC
RXF 393 renal = tested on: RXF 393 renal
HCC-2998 colon = tested on: HCC-2998 colon
EKVX NSCLC = tested on: EKVX NSCLC
K-562 leukemia = tested on: K-562 leukemia
KM12 colon = tested on: KM12 colon
MALME-3M melanoma = tested on: MALME-3M melanoma
NCI/ADR-RES ovarian = tested on: NCI/ADR-RES ovarian
IGROV1 ovarian = tested on: IGROV1 ovarian
NCI-H522 lung = tested on: NCI-H522 lung
SW-620 colon = tested on: SW-620 colon
HCT-116 colon = tested on: HCT-116 colon
HCT-15 colon = tested on: HCT-15 colon
UO-31 renal = tested on: UO-31 renal
NCI-H23 lung = tested on: NCI-H23 lung
U251 CNS = tested on: U251 CNS
RPMI-8226 leukemia = tested on: RPMI-8226 leukemia
OVCAR-8 ovarian = tested on: OVCAR-8 ovarian
NCI-H460 lung = tested on: NCI-H460 lung
LOX IMVI melanoma = tested on: LOX IMVI melanoma
HL-60(TB) leukemia = tested on: HL-60(TB) leukemia
SK-OV-3 ovarian = tested on: SK-OV-3 ovarian
CCRF-CEM leukemia = tested on: CCRF-CEM leukemia
SK-MEL-28 melanoma = tested on: SK-MEL-28 melanoma
SN12C renal = tested on: SN12C renal
CAKI-1 renal = tested on: CAKI-1 renal
MDA-MB-435 = tested on: MDA-MB-435
SF-295 CNS = tested on: SF-295 CNS
OVCAR-4 ovarian = tested on: OVCAR-4 ovarian
DU-145 prostate = tested on: DU-145 prostate
A498 renal = tested on: A498 renal
SNB-19 CNS = tested on: SNB-19 CNS
HS 578T breast = tested on: HS 578T breast
TK-10 renal = tested on: TK-10 renal
T-47D breast = tested on: T-47D breast
OVCAR-5 ovarian = tested on: OVCAR-5 ovarian
HOP-92 NSCLC = tested on: HOP-92 NSCLC
HT29 colon = tested on: HT29 colon
SR leukemia = tested on: SR leukemia
SK-MEL-2 melanoma = tested on: SK-MEL-2 melanoma
SK-MEL-5 melanoma = tested on: SK-MEL-5 melanoma
SNB-75 CNS = tested on: SNB-75 CNS
MDA-MB-231 breast = tested on: MDA-MB-231 breast
UACC-257 melanoma = tested on: UACC-257 melanoma
OVCAR-3 ovarian = tested on: OVCAR-3 ovarian
A549 NSCLC = tested on: A549 NSCLC
MCF7 breast = tested on: MCF7 breast
SF-539 CNS = tested on: SF-539 CNS
UACC-62 melanoma = tested on: UACC-62 melanoma
NCI-H226 lung = tested on: NCI-H226 lung
MOLT-4 leukemia = tested on: MOLT-4 leukemia
COLO 205 colon = tested on: COLO 205 colon
ACHN renal = tested on: ACHN renal
BT-549 breast = tested on: BT-549 breast
SF-268 CNS = tested on: SF-268 CNS
786-0 renal = tested on: 786-0 renal

O=C1C(OCCOc2ccccc2)=C(OCCOc2ccccc2)C(=O)c2ccccc21
10.5 µM: TGI (NCI-H460 lung)
> 100 µM: TGI (PC-3 prostate) | TGI (HOP-62 NSCLC) | TGI (RXF 393 renal) | TGI (HCC-2998 colon) | TGI (EKVX NSCLC) | TGI (K-562 leukemia) | TGI (KM12 colon) | TGI (MALME-3M melanoma) | TGI (NCI/ADR-RES ovarian) | TGI (IGROV1 ovarian) | TGI (NCI-H522 lung) | TGI (SW-620 colon) | TGI (HCT-116 colon) | TGI (HCT-15 colon) | TGI (UO-31 renal) | TGI (U251 CNS) | TGI (RPMI-8226 leukemia) | TGI (OVCAR-8 ovarian) | TGI (LOX IMVI melanoma) | TGI (HL-60(TB) leukemia) | TGI (SK-OV-3 ovarian) | TGI (CCRF-CEM leukemia) | TGI (SK-MEL-28 melanoma) | TGI (CAKI-1 renal) | TGI (MDA-MB-435) | TGI (SF-295 CNS) | TGI (OVCAR-4 ovarian) | TGI (DU-145 prostate) | TGI (A498 renal) | TGI (SNB-19 CNS) | TGI (HS 578T breast) | TGI (TK-10 renal) | TGI (T-47D breast) | TGI (OVCAR-5 ovarian) | TGI (HOP-92 NSCLC) | TGI (HT29 colon) | TGI (SR leukemia) | TGI (SK-MEL-2 melanoma) | TGI (SNB-75 CNS) | TGI (MDA-MB-231 breast) | TGI (UACC-257 melanoma) | TGI (OVCAR-3 ovarian) | TGI (A549 NSCLC) | TGI (MCF7 breast) | TGI (SF-539 CNS) | TGI (UACC-62 melanoma) | TGI (NCI-H226 lung) | TGI (MOLT-4 leukemia) | TGI (COLO 205 colon) | TGI (ACHN renal) | TGI (BT-549 breast) | TGI (SF-268 CNS) | TGI (786-0 renal)
52 µM: TGI (SN12C renal)
24.3 µM: TGI (NCI-H23 lung)
inactive: GI50 (PC-3 prostate) 17.2 µM | GI50 (HOP-62 NSCLC) 9.26 µM | GI50 (RXF 393 renal) 40.2 µM | GI50 (HCC-2998 colon) 11.6 µM | GI50 (EKVX NSCLC) > 100 µM | GI50 (K-562 leukemia) > 100 µM | GI50 (KM12 colon) 4.71 µM | GI50 (MALME-3M melanoma) 24.5 µM | GI50 (NCI/ADR-RES ovarian) 7.64 µM | GI50 (IGROV1 ovarian) > 100 µM | GI50 (NCI-H522 lung) 3.93 µM | GI50 (SW-620 colon) 4.7 µM | GI50 (HCT-116 colon) 3.13 µM | GI50 (HCT-15 colon) 3.14 µM | GI50 (UO-31 renal) 12.2 µM | GI50 (NCI-H23 lung) 1.82 µM | GI50 (U251 CNS) 5 µM | GI50 (RPMI-8226 leukemia) > 100 µM | GI50 (OVCAR-8 ovarian) > 100 µM | GI50 (NCI-H460 lung) 3.05 µM | GI50 (LOX IMVI melanoma) 3.75 µM | GI50 (HL-60(TB) leukemia) > 100 µM | GI50 (SK-OV-3 ovarian) 23.1 µM | GI50 (CCRF-CEM leukemia) > 100 µM | GI50 (SK-MEL-28 melanoma) 16.5 µM | GI50 (SN12C renal) 4.38 µM | GI50 (CAKI-1 renal) 12.5 µM | GI50 (MDA-MB-435) 35.4 µM | GI50 (SF-295 CNS) 5.11 µM | GI50 (OVCAR-4 ovarian) 7.1 µM | GI50 (DU-145 prostate) 7.12 µM | GI50 (A498 renal) 18.2 µM | GI50 (SNB-19 CNS) 11.1 µM | GI50 (HS 578T breast) 8.96 µM | GI50 (TK-10 renal) > 100 µM | GI50 (T-47D breast) > 100 µM | GI50 (OVCAR-5 ovarian) > 100 µM | GI50 (HOP-92 NSCLC) 1.21 µM | GI50 (HT29 colon) 9.95 µM | GI50 (SR leukemia) 7.26 µM | GI50 (SK-MEL-2 melanoma) 18.6 µM | GI50 (SK-MEL-5 melanoma) 1.92 µM | GI50 (SNB-75 CNS) 20.1 µM | GI50 (MDA-MB-231 breast) > 100 µM | GI50 (UACC-257 melanoma) 3.72 µM | GI50 (OVCAR-3 ovarian) 6.5 µM | GI50 (A549 NSCLC) 4.62 µM | GI50 (MCF7 breast) 7.74 µM | GI50 (SF-539 CNS) > 100 µM | GI50 (UACC-62 melanoma) 6.79 µM | GI50 (NCI-H226 lung) 22.1 µM | GI50 (MOLT-4 leukemia) > 100 µM | GI50 (COLO 205 colon) 41.9 µM | GI50 (ACHN renal) 5.09 µM | GI50 (BT-549 breast) > 100 µM | GI50 (SF-268 CNS) 6.31 µM | GI50 (786-0 renal) 34.6 µM
4.86 µM: TGI (SK-MEL-5 melanoma)
